In patent US20070259872A1, “Inhibitors of soluble adenylate cyclase” (priority 2006, published 2007):

Target: soluble, sperm-specific adenylate cyclase (sAC) (Homo sapiens, UniProt Q96PN6)
Test: sAC-Assay (HTRF cAMP detection)
Assay type: biochemical
Conditions: read-out: IC50 (inhibition of the soluble adenylate cyclase)
Text: In a suitable buffer system, the soluble, sperm-specific adenylate cyclase catalyzes the reaction of adenosine triphosphate (ATP) to cyclic adenosine monophosphate (cAMP) and pyrophosphate. Free cAMP that is generated in this way is then used in a competitive detection process, in which the binding of a europium kryptate (Eu[K])-labeled anti-cAMP antibody (anti cAMP-Eu[K]-AK) to a cAMP-molecule-labeled, modified allophycocyanine-1 molecule (cAMP-XL665) is prevented. In the absence of exogenic cAMP, after excitation at 335 nm, it results in a fluorescence resonance energy transfer (FRET) between the anti cAMP-Eu[K]-AK (FRET-donor) and the cAMP-XL665 molecule (FRET-acceptor). This process is quantified at different times (time-resolved) based on the emission of FRET-acceptor XL665 (665 nm and 620 nm). A signal drop (measured as a wave ratio; calculation formula: [(E665 nm/E620 nm)×10000]) can be attributed to the presence of cAMP and thus to the activity of sAC.
First, 1.5 μl of the test substance (in 30% DMSO), only 30% DMSO in the solvent controls, is introduced per recess in a 384-hole test plate (polystyrene; 384, NV). […]
After an additional incubation of 90 minutes at room temperature, the HTRF result is measured either on the Packard Discovery or with the RubiStar HTRF measuring device (Delay: 50 μs; Integration time: 400 μs).

Sequence of soluble, sperm-specific adenylate cyclase (sAC) (Q96PN6 whole entry): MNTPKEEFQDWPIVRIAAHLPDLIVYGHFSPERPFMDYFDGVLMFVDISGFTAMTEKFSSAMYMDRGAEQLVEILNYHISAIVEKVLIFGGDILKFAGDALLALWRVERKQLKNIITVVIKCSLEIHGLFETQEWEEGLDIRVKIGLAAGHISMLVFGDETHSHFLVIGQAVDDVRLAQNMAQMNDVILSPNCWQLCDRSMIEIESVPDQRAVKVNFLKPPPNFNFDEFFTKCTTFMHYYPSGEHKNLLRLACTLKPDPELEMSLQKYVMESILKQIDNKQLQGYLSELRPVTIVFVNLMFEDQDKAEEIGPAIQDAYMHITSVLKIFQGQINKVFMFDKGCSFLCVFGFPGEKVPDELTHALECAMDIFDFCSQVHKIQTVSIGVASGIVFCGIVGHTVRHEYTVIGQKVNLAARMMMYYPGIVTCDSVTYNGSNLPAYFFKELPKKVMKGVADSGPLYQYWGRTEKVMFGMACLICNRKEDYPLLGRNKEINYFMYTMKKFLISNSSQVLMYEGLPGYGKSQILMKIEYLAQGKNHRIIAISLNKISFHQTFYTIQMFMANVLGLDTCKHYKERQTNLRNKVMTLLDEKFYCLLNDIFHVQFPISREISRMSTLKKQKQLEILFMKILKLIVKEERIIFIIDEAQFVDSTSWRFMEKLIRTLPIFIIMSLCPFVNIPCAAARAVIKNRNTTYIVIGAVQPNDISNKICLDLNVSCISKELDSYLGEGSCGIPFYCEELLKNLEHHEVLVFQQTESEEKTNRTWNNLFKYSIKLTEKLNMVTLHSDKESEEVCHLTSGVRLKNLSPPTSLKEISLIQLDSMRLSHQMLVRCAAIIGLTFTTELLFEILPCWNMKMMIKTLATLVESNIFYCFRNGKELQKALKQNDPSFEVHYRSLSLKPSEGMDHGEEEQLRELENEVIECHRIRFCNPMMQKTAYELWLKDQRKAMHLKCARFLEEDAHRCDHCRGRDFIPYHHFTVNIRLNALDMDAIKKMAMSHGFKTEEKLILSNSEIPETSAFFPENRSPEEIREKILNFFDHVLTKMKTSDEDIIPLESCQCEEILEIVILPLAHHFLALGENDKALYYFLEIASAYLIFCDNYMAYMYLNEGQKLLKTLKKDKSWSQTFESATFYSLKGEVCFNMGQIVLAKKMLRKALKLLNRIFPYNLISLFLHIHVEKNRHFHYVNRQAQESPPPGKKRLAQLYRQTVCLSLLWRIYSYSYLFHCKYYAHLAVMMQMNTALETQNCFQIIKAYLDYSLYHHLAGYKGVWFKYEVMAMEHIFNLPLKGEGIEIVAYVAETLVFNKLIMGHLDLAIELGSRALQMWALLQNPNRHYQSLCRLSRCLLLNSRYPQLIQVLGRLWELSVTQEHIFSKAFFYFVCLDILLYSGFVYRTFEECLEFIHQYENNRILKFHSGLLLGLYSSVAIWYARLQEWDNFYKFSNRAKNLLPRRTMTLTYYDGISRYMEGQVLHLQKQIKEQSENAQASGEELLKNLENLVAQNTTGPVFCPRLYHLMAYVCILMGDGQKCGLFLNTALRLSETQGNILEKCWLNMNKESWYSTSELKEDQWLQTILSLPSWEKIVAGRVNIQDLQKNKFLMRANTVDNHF

IC50 [nM] | SMILES
3000 | CC(C)(C)c1ccc(NS(=O)(=O)c2ccc3[nH]c(C(=O)NC4CCOCC4)c(-c4ccccc4)c3c2)cc1
1600 | CC(O)CNC(=O)c1[nH]c2ccc(S(=O)(=O)Nc3ccc(C(C)(C)C)cc3)cc2c1-c1ccccc1 (racemic)
